According to patent US9975869B2 (Sphaera Pharma Pvt. Ltd., priority 2013, dated 2018):

Test system: AMPK
Test: AMPK activation potential, cell based ELISA (Phospho-AMPKα Thr172) in Hep G2 cells
Conditions: 10 nm concentration; Hep G2 liver cells; % activity with DMSO control as 100%; 30 min incubation for Epicatechin analogs
Procedure: Testing of Compounds for Their AMPK Activation Potential
AMPK activation potential of the compounds was evaluated using cell based ELISA. Hepatoma (Hep G2) liver cells were maintained in a T 75 culture flask-containing 25 mM DMEM+10% fetal calf serum. The cells were maintained in a T 75 culture flask-containing medium (DMEM+10% fetal calf serum). On reaching a confluence of 70 to 80%, the cells were seeded in a 96 well plate at a density of 40,000 cells per well in 25 mM DMEM+10% FCS medium. The plates were then incubated at 37° C. with 5% CO2 for 24 hours. Various concentrations of drugs were prepared in DMSO and diluted to required concentration with the medium and incubated at 37° C. with 5% CO2 for 30 min and 1 h for Epicatechin analogs and 11-BHP analogs respectively. Metformin was used as positive control. Cells were fixed with 4% formaldehyde for 30 minutes at room temperature and washed three times with PBS containing 0.1% Triton X-100. Endogenous peroxidase was quenched with 1% H2O2 in PBS-T (0.1% Tween 20) for 30 minutes and washed three times in PBS-T. Cells were blocked with 1% BSA in PBS-T for 1 hour. The cells were incubated with 1:1000 dilution primary antibody (Phospho-AMPKα (Thr172) Rabbit mAb, Cell Signaling in PBS-T containing 5% BSA at 4° C. overnight. The cells were then washed three times with PBS-T for 5 minutes and incubated with 1:1000 dilution secondary antibody (Anti-rabbit IgG, HRP-linked Antibody, Cell Signaling) in PBS-T with 1% BSA for 1 hour at RT. Cells were washed three times with PBS-T for 5 minutes The cells were incubated with 100 μl TMB substrate solution for 30 minutes and the reaction was stopped with 100 μl of 2N H2SO4. Then the plate was read at 450 nm using ELISA plate reader and absorbance recorded. % activity was calculated using DMSO control as 100%. All compounds of the present invention, as exemplified and encompassed are found to be active.

Row | Structure (SMILES) | % pAMPK(at 10 nm) [%]
1 | CN(C)C(=O)O[C@@H]1Cc2c(O)cc(O)cc2O[C@@H]1c1ccc(O)c(O)c1 [Compound 1047, (2R,3R)-2-(3,4-dihydroxyphenyl)-5,7-dihydroxychroman-3-yl dimethylcarbamate] | 100
2 | Oc1ccc([C@H]2Oc3cccc(O)c3C[C@H]2O)cc1 (racemic) [Compound 1006, Cis (±) 2-(4-hydroxyphenyl)chroman-3,5-diol] | 103
3 | CCOC(=O)O[C@@H]1Cc2c(O)cc(O)cc2O[C@@H]1c1ccc(O)c(O)c1 [Compound 1053, (2R,3R)-2-(3,4-dihydroxyphenyl)-5,7-dihydroxychroman-3-yl ethyl carbonate] | 94
4 | CCCCCCCC(=O)Oc1ccc([C@H]2Oc3cc(O)cc(O)c3C[C@H]2O)cc1O [Compound 1043, 2-hydroxy-4-((2R,3R)-3,5,7-trihydroxychroman-2-yl)phenyl octanoate] | 98
5 | Oc1cccc([C@H]2Oc3cc(O)ccc3C[C@H]2O)c1 (racemic) [Compound 1007, Cis (±) 2-(3-hydroxyphenyl)chroman-3,7-diol] | 113
6 | CC(C)(C)OC(=O)O[C@@H]1Cc2c(O)cc(O)cc2O[C@@H]1c1ccc(O)c(O)c1 [Compound 1073, tert-butyl ((2R,3R)-2-(3,4-dihydroxyphenyl)-5,7-dihydroxychroman-3-yl) carbonate] | 109
7 | CC(C)NC(=O)O[C@@H]1Cc2c(O)cc(O)cc2O[C@@H]1c1ccc(O)c(O)c1 [Compound 1046, (2R,3R)-2-(3,4-dihydroxyphenyl)-5,7-dihydroxychroman-3-yl isopropylcarbamate] | 101
8 | CCCCCCCC(=O)Oc1cc(O)cc2c1C[C@@H](O)[C@@H](c1ccc(O)c(O)c1)O2 [Compound 1064, (2R,3R)-2-(3,4-dihydroxyphenyl)-3,7-dihydroxychroman-5-yl octanoate] | 110
9 | Cc1ccc([C@H]2Oc3cc(O)ccc3C[C@H]2O)cc1O (stereo in doubt) [Compound 1027, 2-(3-hydroxy-4-methylphenyl)chromane-3,7-diol] | 94
10 | Oc1ccc([C@H]2Oc3cc(O)cc(O)c3C[C@H]2O)cc1 (racemic) [Compound 1008, Cis (±) 2-(4-hydroxyphenyl)chroman-3,5,7-triol] | 103
11 | O=C(NCc1ccccc1)Oc1cc(OC(=O)NCc2ccccc2)c2c(c1)O[C@H](c1ccc(OC(=O)NCc3ccccc3)c(OC(=O)NCc3ccccc3)c1)[C@H](O)C2 [Compound 1051, 4-((2R,3R)-5,7-bis((benzylcarbamoyl)oxy)-3-hydroxychroman-2-yl)-1,2-phenylene bis(benzylcarbamate)] | 85
12 | C[n+]1cccc(C(=O)O[C@@H]2Cc3c(O)cc(O)cc3O[C@@H]2c2ccc(O)c(O)c2)c1 [Compound 1041, 3-((((2R,3R)-2-(3,4-dihydroxyphenyl)-5,7-dihydroxychroman-3-yl)oxy)carbonyl)-1-methylpyridin-1-ium] | 88
13 | COC(=O)Oc1cc(OC(=O)OC)c2c(c1)O[C@H](c1ccc(OC(=O)OCc3ccccc3)c(OC(=O)OCc3ccccc3)c1)[C@H](O)C2 [Compound 1066, dibenzyl (4-((2R,3R)-3-hydroxy-5,7-bis((methoxycarbonyl)oxy)chroman-2-yl)-1,2-phenylene) bis(carbonate)] | 139
14 | CC(C)(C)COC(=O)O[C@@H]1Cc2c(O)cc(O)cc2O[C@@H]1c1ccc(O)c(O)c1 [Compound 1045, (2R,3R)-2-(3,4-dihydroxyphenyl)-5,7-dihydroxychroman-3-yl neopentyl carbonate] | 105
15 | Oc1ccc([C@H]2Oc3ccccc3C[C@H]2O)cc1O (racemic) [Compound 1002, Cis (±) 3-hydroxychroman-2-yl)benzene-1,2-diol] | 108
16 | Oc1cccc([C@H]2Oc3cccc(O)c3C[C@H]2O)c1 (racemic) [Compound 1005, Cis (±) 2-(3-hydroxyphenyl)chroman-3,5-diol] | 102
17 | COc1cccc([C@H]2Oc3cc(OC)ccc3C[C@H]2O)c1 (racemic) [Compound 1019] | 101
18 | O=C(NCc1ccccc1)Oc1ccc([C@H]2Oc3cc(O)cc(O)c3C[C@H]2O)cc1OC(=O)NCc1ccccc1 [Compound 1059, 4-((2R,3R)-3,5,7-trihydroxychroman-2-yl)-1,2-phenylene bis(benzylcarbamate)] | 144

Row | Structure (SMILES) | % pAMPK(at 10 nm) [%]
19 | O=C(OCc1ccccc1)Oc1cc(OC(=O)OCc2ccccc2)c2c(c1)O[C@H](c1ccc(OC(=O)OCc3ccccc3)c(OC(=O)OCc3ccccc3)c1)[C@H](O)C2 [Compound 1052, dibenzyl (4-((2R,3R)-5,7-bis(((benzyloxy)carbonyl)oxy)-3-hydroxychroman-2-yl)-1,2-phenylene) bis(carbonate)] | 103
20 | O=C(OCc1ccccc1)Oc1ccc([C@H]2Oc3cc(O)cc(O)c3C[C@H]2O)cc1OC(=O)OCc1ccccc1 [Compound 1048, dibenzyl (4-((2R,3R)-3,5,7-trihydroxychroman-2-yl)-1,2-phenylene) bis(carbonate)] | 103
21 | CC(C)COC(=O)Oc1cc(OC(=O)OCC(C)C)c2c(c1)O[C@H](c1ccc(O)c(O)c1)[C@H](O)C2 [Compound 1050, (2R,3R)-2-(3,4-dihydroxyphenyl)-3-hydroxychromane-5,7-diyl diisobutyl bis(carbonate)] | 91
22 | Cc1ccc([C@H]2Oc3cc(O)ccc3C[C@H]2O)cc1O [Compound 1069, (2R,3R)-2-(3-hydroxy-4-methylphenyl)chromane-3,7-diol] | 110
23 | CCCO[C@@H]1Cc2ccc(O)cc2O[C@@H]1c1cccc(OC)c1 [Compound 1068, (2R,3R)-2-(3-methoxyphenyl)-3-propoxychroman-7-ol] | 90
24 | CC(C)(C)COC(=O)Oc1ccc([C@H]2Oc3cc(O)cc(O)c3C[C@H]2O)cc1OC(=O)OCC(C)(C)C [Compound 1072, dineopentyl (4-((2R,3R)-3,5,7-trihydroxychroman-2-yl)-1,2-phenylene) bis(carbonate)] | 99
25 | CC(C)COC(=O)Oc1cc(OC(=O)OCC(C)C)c2c(c1)O[C@H](c1ccc(OC(=O)OCc3ccccc3)c(OC(=O)OCc3ccccc3)c1)[C@H](O)C2 [Compound 1060, dibenzyl (4-((2R,3R)-3-hydroxy-5,7-bis((isobutoxycarbonyl)oxy)chroman-2-yl)-1,2-phenylene) bis(carbonate)] | 110
26 | Oc1cc(O)c2c(c1)O[C@H](c1ccc(O)c(F)c1)[C@H](O)C2 (racemic) [Compound 1034, Cis (±) 2-(3-fluoro-4-hydroxyphenyl)chromane-3,5,7-triol] | 107
27 | COc1cc([C@H]2Oc3cc(O)ccc3C[C@H]2O)ccc1C (stereo in doubt) [Compound 1026, 2-(3-methoxy-4-methylphenyl)chromane-3,7-diol] | 101
28 | Oc1ccc([C@H]2Oc3cc(O)ccc3C[C@H]2O)cc1 (racemic) [Compound 1004, Cis (±) 2-(4-hydroxyphenyl)chroman-3,7-diol] | 114
29 | [2H][C@]1(c2ccc(O)c(O)c2)Oc2cc(O)cc(O)c2C[C@H]1O [Compound 1037, (2R,3R)-2-(3,4-dihydroxyphenyl)chromane-2-d-3,5,7-triol] | 110
30 | COc1cc(C2Oc3cc(O)ccc3C[C@H]2O)ccc1F (stereo in doubt) [Compound 1028, 2-(4-fluoro-3-methoxyphenyl)chromane-3,7-diol] | 101
31 | CC(C)(C)COC(=O)Oc1cc([C@H]2Oc3cc(O)cc(O)c3C[C@H]2O)ccc1O [Compound 1042, 2-hydroxy-5-((2R,3R)-3,5,7-trihydroxychroman-2-yl)phenyl neopentyl carbonate] | 95
32 | COC(=O)Oc1ccc([C@H]2Oc3cc(O)cc(O)c3C[C@H]2O)cc1OC(=O)OC [Compound 1049, dimethyl (4-((2R,3R)-3,5,7-trihydroxychroman-2-yl)-1,2-phenylene) bis(carbonate)] | 105
33 | CCCO[C@@H]1Cc2ccc(O)cc2OC1c1cccc(O)c1 (stereo in doubt) [Compound 1030, 2-(3-hydroxyphenyl)-3-propoxychroman-7-ol] | 94
34 | COC(=O)CNC(=O)O[C@@H]1Cc2c(O)cc(O)cc2O[C@@H]1c1ccc(O)c(O)c1 [Compound 1056, methyl ((((2R,3R)-2-(3,4-dihydroxyphenyl)-5,7-dihydroxychroman-3-yl)oxy)carbonyl)glycinate] | 112
35 | CC(C)NC(=O)Oc1ccc([C@H]2Oc3cc(O)cc(O)c3C[C@H]2O)cc1OC(=O)NC(C)C [Compound 1044, 4-((2R,3R)-3,5,7-trihydroxychroman-2-yl)-1,2-phenylene bis(isopropylcarbamate)] | 96
